From patent publication US6774145B1, “Material separated from Ecklonia cava, method for extracting and purifying the same, and use thereof as antioxidants” (Ventree Co., Ltd, priority 2000, dated 2004)

How the values were obtained:
[1] = DPPH radical scavenging activity (Blois method); type: biochemical; details: reacted 10 min, absorbance at 517 nm
Description: (§1) The antioxidative activity of the novel compound obtained through the extraction and purification process is evaluated by measuring its radical scavenging activity against 1,1-diphenyl-2-picrylhydrazyl (DPPH), which has free radicals attached thereto, according to the Blois method. A thermal stability of the compound of interest can be evaluated by measuring its antioxidative activity at plural temperature points.
(§2) Dicaval A and Dicaval B obtained in Example 3 were measured for antioxidative activity according to the Blois method. For this, an examination was made of the radical scavenging activity of the two compounds against 1,1-diphenyl-2-picrylhydrazyl (DPPH) to which free radicals were attached. First, 20 mg of DPPH was dissolved in 150 ml of ethanol to prepare a DPPH solution. To 600 μl of the DPPH solution was added with 250 μl of dimethylsulfoxide (DMSO), diluted with an appropriate amount of ethanol and shaken for 10 seconds, after which this control was adjusted, in absorbance at 517 nm, from 0.94 to 0.97. To 1 ml of the DPPH solution which was adjusted from 0.94 to 0.97 likewise, each of the samples (μg to mg) was added and then, reacted for 10 min, followed by measuring the absorbance of the solution. The antioxidative activity of each of the samples was determined by the DPPH radical scavenging activity which was represented by a reduced absorbance compared with that of the control.
The antioxidative activity was compared between the conventional antioxidants and the compounds of the invention and the results are given in Table 1, below.

[2] = Thermal stability: antioxidative activity after heating for 1 hour; type: physicochemical
Description: as §1, §2
50 μg of each of Dicaval A and Dicaval B obtained in Example 3 was heated at 40° C., 60° C., 80° C., and 100° C. for 1 hour to measure antioxidative activity.

[3] = 50 μg heated at 40° C. for 1 hour
[4] = 50 μg heated at 60° C. for 1 hour
[5] = 50 μg heated at 80° C. for 1 hour
[6] = 50 μg heated at 100° C. for 1 hour

Compound: O=C1O[C@H]([C@@H](O)CO)C(O)=C1O [Ascorbic acid, reference compound]
- antioxidative activity (DPPH radical scavenging activity) ([1]; sample amount 10 μg): 100%
- antioxidative activity (DPPH radical scavenging activity) ([1]; sample amount 20 μg): 100%
- antioxidative activity (DPPH radical scavenging activity) ([1]; sample amount 100 μg): 100%

Compound: Oc1cc(O)c(Oc2c(O)cc(Oc3cc4oc5c(O)c(Oc6cc(O)c(Oc7c(O)cc(O)cc7O)c(O)c6)c(O)cc5c4cc3O)cc2O)c(O)c1 [Dicaval A]
- antioxidative activity (DPPH radical scavenging activity) ([1]; sample amount 10 μg): 100%
- antioxidative activity (DPPH radical scavenging activity) ([1]; sample amount 20 μg): 100%
- antioxidative activity (DPPH radical scavenging activity) ([1]; sample amount 100 μg): 100%
- Antioxidativity (Absorb. change) [2, 3]: 0.87
- Thermal stability (Notes) [2, 3]: Stable
- Antioxidativity (Absorb. change) [2, 4]: 0.89
- Thermal stability (Notes) [2, 4]: Stable
- Antioxidativity (Absorb. change) [2, 5]: 0.88
- Thermal stability (Notes) [2, 5]: Stable
- Antioxidativity (Absorb. change) [2, 6]: 0.90
- Thermal stability (Notes) [2, 6]: Stable

Compound: Oc1cc(O)c(Oc2c(O)cc(Oc3c(O)cc4c(oc5c(O)c(Oc6cc(O)c(Oc7c(O)cc(O)cc7O)c(O)c6)c(O)cc54)c3O)cc2O)c(O)c1 [Dicaval B]
- antioxidative activity (DPPH radical scavenging activity) ([1]; sample amount 10 μg): 100%
- antioxidative activity (DPPH radical scavenging activity) ([1]; sample amount 20 μg): 100%
- antioxidative activity (DPPH radical scavenging activity) ([1]; sample amount 100 μg): 100%
- Antioxidativity (Absorb. change) [2, 3]: 0.88
- Thermal stability (Notes) [2, 3]: Stable
- Antioxidativity (Absorb. change) [2, 4]: 0.88
- Thermal stability (Notes) [2, 4]: Stable
- Antioxidativity (Absorb. change) [2, 5]: 0.87
- Thermal stability (Notes) [2, 5]: Stable
- Antioxidativity (Absorb. change) [2, 6]: 0.89
- Thermal stability (Notes) [2, 6]: Stable
